This test addresses Synaptic vesicular amine transporter (Homo sapiens, UniProt Q05940). The test can be described thus: Substrate uptake and inhibition of the Vesicular Amine Transporter 2 (VMAT2, SLC18A2) as assessed by uptake of a fluorescent substrate (FFN206) in HEK-293 JumpIN-SLC18A2 cells (PubChem AID: 1794817). It is filed as functional, cell-based, HEK293.

Each structure is given as a SMILES string.

Synaptic vesicular amine transporter, sequence (Q05940 whole entry): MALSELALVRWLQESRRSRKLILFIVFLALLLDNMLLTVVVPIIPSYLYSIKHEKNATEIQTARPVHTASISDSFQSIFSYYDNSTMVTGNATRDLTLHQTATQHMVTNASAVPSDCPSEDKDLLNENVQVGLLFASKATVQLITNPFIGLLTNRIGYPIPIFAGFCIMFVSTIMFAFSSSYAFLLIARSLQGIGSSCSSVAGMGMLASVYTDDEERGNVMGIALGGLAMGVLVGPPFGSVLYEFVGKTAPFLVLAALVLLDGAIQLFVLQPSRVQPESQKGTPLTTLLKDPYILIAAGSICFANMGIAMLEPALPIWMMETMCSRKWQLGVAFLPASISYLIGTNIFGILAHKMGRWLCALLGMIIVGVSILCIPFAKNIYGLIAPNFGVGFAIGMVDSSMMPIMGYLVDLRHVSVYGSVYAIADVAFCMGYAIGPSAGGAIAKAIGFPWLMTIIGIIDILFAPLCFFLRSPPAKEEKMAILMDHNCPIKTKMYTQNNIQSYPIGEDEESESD

For `CNc1ccc2c(CCN)cc(=O)oc2c1`, the response was half-maximal at 3.56 µM (EC50).

Take `COc1cc2c(cc1OC)C1CC(=O)C(CC(C)C)CN1CC2` (configuration not stated) [TETRABENAZINE]: the concentration for half-maximal inhibition (IC50) (as a rule, the concentration at which inhibition is half-maximal) stood at 0.0198 µM.

For the origin of these results see ChEMBL document CHEMBL5209585, “FFN206 based assay for SLC18A2 using HEK-293 SLC18A2 OE cells” (2022).
